Biological target: human plasma kallikrein (Homo sapiens (Human), UniProt P03952)
Experiment: Determination of the plasma kallikrein activity (fluorogenic substrate H-Pro-Phe-Arg-AMC)
Type: biochemical
Conditions: plasma kallikrein from Kordia 0.6 nM, 15 min preincubation, 30 min at 22° C., fluorescence
Description: a.5) Determination of the Plasma Kallikrein Activity
To determine the plasma kallikrein inhibition of the substances according to the invention, a biochemical test system is used which utilizes the reaction of a peptidic plasma kallikrein substrate to determine the enzymatic activity of human plasma kallikrein. Here, plasma kallikrein cleaves from the peptic plasma kallikrein substrate the C-terminal aminomethylcoumarin (AMC), the fluorescence of which is measured. The determinations are carried out in microtitre plates.
In each case 1 μl of the diluted substance solutions is placed into the wells of white microtitre plates from Greiner (384 wells). 20 μl of assay buffer (50 mM Tris/HCl pH 7.4; 100 mM sodium chloride solution; 5 mM of calcium chloride solution; 0.1% of bovine serum albumin) and 20 μl of plasma kallikrein from Kordia (0.6 nM in assay buffer) are then added successively. After 15 min of incubation, the enzyme reaction is started by addition of 20 μl of the substrate H-Pro-Phe-Arg-AMC dissolved in assay buffer (10 μM in assay buffer) from Bachem, the mixture is incubated at room temperature (22° C.) for 30 min and fluorescence is then measured (excitation: 360 nm, emission: 460 nm). The measured emissions of the test batches with test substance are compared to those of control batches without test substance (only dimethyl sulphoxide instead of test substance in dimethyl sulphoxide), and IC50 values are calculated from the concentration/activity relationships.

human plasma kallikrein, sequence (P03952 391-638): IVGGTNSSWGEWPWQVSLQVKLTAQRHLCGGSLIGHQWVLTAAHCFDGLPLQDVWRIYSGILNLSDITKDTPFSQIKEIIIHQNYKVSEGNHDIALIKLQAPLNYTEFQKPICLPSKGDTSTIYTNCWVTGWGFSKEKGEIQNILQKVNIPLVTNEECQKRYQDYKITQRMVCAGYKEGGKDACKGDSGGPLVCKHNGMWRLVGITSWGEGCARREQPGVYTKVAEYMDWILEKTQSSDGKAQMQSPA
human plasma kallikrein, sequence (P03952 20-390 partner): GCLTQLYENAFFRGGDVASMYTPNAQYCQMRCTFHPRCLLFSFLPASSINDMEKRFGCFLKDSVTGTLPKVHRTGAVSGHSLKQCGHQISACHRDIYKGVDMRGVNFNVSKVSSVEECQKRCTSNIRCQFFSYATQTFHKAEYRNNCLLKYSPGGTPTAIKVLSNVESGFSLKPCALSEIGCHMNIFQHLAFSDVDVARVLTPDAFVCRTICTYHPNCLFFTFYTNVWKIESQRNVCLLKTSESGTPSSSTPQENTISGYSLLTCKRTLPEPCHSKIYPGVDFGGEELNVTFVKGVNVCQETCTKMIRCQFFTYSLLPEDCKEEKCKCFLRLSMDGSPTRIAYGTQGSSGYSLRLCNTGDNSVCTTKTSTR

SMILES | IC50 [nM]
COc1cn(C(C[C@@H]2CCCCO2)C(=O)Nc2ccc3nc(C(=O)O)cn3c2)c(=O)cc1-c1cc(Cl)ccc1C#N (mixture of isomers) [Example 9, 6-({2-[4-(5-Chloro-2-cyanophenyl)-5-methoxy-2-oxopyridin-1(2H)-yl]-3-[(2S)-tetrahydro-2H-pyran-2-yl]propanoyl}amino)imidazo[1,2-a]pyridine-2-carboxylic acid (mixture of enantiomerically pure diastereomers)] | 4.8
CCC(C(=O)Nc1ccc2nc(C(=O)O)cn2c1)n1cc(OC)c(-c2cc(Cl)ccc2C#N)cc1=O (racemic) [Example 2, 6-({2-[4-(5-Chloro-2-cyanophenyl)-5-methoxy-2-oxopyridin-1(2H)-yl]butanoyl}amino)imidazo[1,2-a]pyridine-2-carboxylic acid (racemate)] | 16
CCC(C(=O)Nc1ccn2cc(C(=O)O)nc2c1)n1cc(OC)c(-c2cc(Cl)ccc2C#N)cc1=O (racemic) [Example 3, 7-({2-[4-(5-Chloro-2-cyanophenyl)-5-methoxy-2-oxopyridin-1(2H)-yl]butanoyl}amino)imidazo[1,2-a]pyridine-2-carboxylic acid (racemate)] | 13
CCC(C(=O)Nc1ccc2nccn2c1)n1cc(OC)c(-c2cc(Cl)ccc2C#N)cc1=O (racemic) [Example 4, 2-[4-(5-Chloro-2-cyanophenyl)-5-methoxy-2-oxopyridin-1(2H)-yl]-N-(imidazo[1,2-a]pyridin-6-yl)butanamide (racemate)] | 44
CCOC(=O)c1cnc2ccc(NC(=O)C(CCOC)n3cc(OC)c(-c4cc(Cl)ccc4C#N)cc3=O)cn12 (racemic) [Example 10, Ethyl 6-({2-[4-(5-chloro-2-cyanophenyl)-5-methoxy-2-oxopyridin-1(2H)-yl]-4-methoxybutanoyl}amino)imidazo[1,2-a]pyridine-3-carboxylate (racemate)] | 7
CCOC(=O)c1cn2ccc(NC(=O)C(CCOC)n3cc(OC)c(-c4cc(Cl)ccc4C#N)cc3=O)cc2n1 (racemic) [Example 11, Ethyl 7-({2-[4-(5-chloro-2-cyanophenyl)-5-methoxy-2-oxopyridin-1(2H)-yl]-4-methoxybutanoyl}amino)imidazo[1,2-a]pyridine-2-carboxylate (racemate)] | 5
COCCC(C(=O)Nc1ccn2cc(C(N)=O)nc2c1)n1cc(OC)c(-c2cc(Cl)ccc2C#N)cc1=O (racemic) [Example 12, 7-({2-[4-(5-Chloro-2-cyanophenyl)-5-methoxy-2-oxopyridin-1(2H)-yl]-4-methoxybutanoyl}amino)imidazo[1,2-a]pyridine-2-carboxamide (racemate)] | 4.9
COCCC(C(=O)Nc1ccc2nccn2c1)n1cc(OC)c(-c2cc(Cl)ccc2C#N)cc1=O (racemic) [Example 13, 2-[4-(5-Chloro-2-cyanophenyl)-5-methoxy-2-oxopyridin-1(2H)-yl]-N-(imidazo[1,2-a]pyridin-6-yl)-4-methoxybutanamide (racemate)] | 13
COCCC(C(=O)Nc1ccc2nccn2c1)n1cc(Cl)c(-c2cc(Cl)ccc2C#N)cc1=O (racemic) [Example 14, 2-[5-Chloro-4-(5-chloro-2-cyanophenyl)-2-oxopyridin-1(2H)-yl]-N-(imidazo[1,2-a]pyridin-6-yl)-4-methoxybutanamide (racemate)] | 65
COc1cn(C(CC2CCC2)C(=O)Nc2ccc3nccn3c2)c(=O)cc1-c1cc(Cl)ccc1C#N (racemic) [Example 15, 2-[4-(5-Chloro-2-cyanophenyl)-5-methoxy-2-oxopyridin-1(2H)-yl]-3-cyclobutyl-N-(imidazo[1,2-a]pyridin-6-yl)propanamide (racemate)] | 31
CCC(C(=O)Nc1ccc2ncc(Cl)n2c1)n1cc(OC)c(-c2cc(Cl)ccc2C#N)cc1=O (racemic) [Example 17, 2-[4-(5-Chloro-2-cyanophenyl)-5-methoxy-2-oxopyridin-1(2H)-yl]-N-(3-chloroimidazo[1,2-a]pyridin-6-yl)butanamide (racemate)] | 24
